Columns and labels:
Type in all cases: cell-based
[1] = system: MOLM-13 cells; assay: Cell viability assay (CELLTITER-GLO), MOLM-13 cells; settings: Homo sapiens, MOLM-13, 72 h; Table 2; compound at 10 μM, 3 days; read-out: Effect on MOLM-13 cell viability (% DMSO)
Method in brief: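 Viability, as % of DMSO control, was read by CellTiter-Glo luminescence after a 3-day compound exposure (single dose of 10 μM or 1 μM) at 37 °C. Cells plated at 4,000/well in RPMI 1640 with 10% FBS. Results reported as categories A <10%, B 10–<25%, C 25–<50%, D ≥50%.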

[2] = system: H358 cells; assay: Cell viability assay (CELLTITER-GLO), H358 cells; settings: Table 4; 3 days
Method in brief: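 Luminescent ATP read-out (CellTiter-Glo) after 3-day incubation at 37 °C of H358 cells plated at 4,000/well in RPMI 1640 with 10% FBS. Values are either IC50 bins (A ≤1 μM through D >10 μM) or % of DMSO viability at 10 μM or 1 μM, bins A <10% through D ≥50%.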

[3] = system: H23 cells; assay: Cell viability assay (CELLTITER-GLO), H23 cells; settings: Table 4; 3 days
Method in brief: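 Luminescent CellTiter-Glo readout after 3-day compound treatment (37° C, 5% CO2) of H23 cells plated at 4,000 cells/well in RPMI 1640 plus 10% FBS, DMSO as control. IC50 values given as categorical ranges.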

SMILES | Inhibition of H358 cells, IC50 (class) [2] | viability at 10 µM [1] | Inhibition of H23 cells, IC50 (class) [3]
CCC(=O)N1CCN(c2ncnc3c(F)c(-c4c(F)cccc4OCCC4CCC(CCN5CCC(c6cc(F)cc7c6CN(C6CCC(=O)NC6=O)C7=O)CC5)CC4)c(Cl)cc23)CC1 (stereo not drawn) [Compound 84, 3-(4-(1-(2-(4-(2-(2-(6-Chloro-8-fluoro-4-(4-propionylpiperazin-1-yl)quinazolin-7-yl)-3-fluorophenoxy)ethyl)cyclohexyl)ethyl)piperidin-4-yl)-6-fluoro-1-oxoisoindolin-2-yl)piperidine-2,6-dione] | B′ | < 10% | B′
CCC(=O)N1CCN(c2ncnc3c(F)c(-c4c(F)cccc4OCCCCCCCN4CCC(c5cc(F)cc6c5CN(C5CCC(=O)NC5=O)C6=O)CC4)c(Cl)cc23)[C@@H](C)C1 (stereo partly drawn) [Compound 85, 3-(4-(1-(7-(2-(6-Chloro-8-fluoro-4-((S)-2-methyl-4-propionylpiperazin-1-yl)quinazolin-7-yl)-3-fluorophenoxy)heptyl)piperidin-4-yl)-6-fluoro-1-oxoisoindolin-2-yl)piperidine-2,6-dione] | B′ | < 10% | B′
CCC(=O)N1CCN(c2ncnc3c(F)c(-c4c(F)cccc4OCCCCCCCN4CCCC(c5cc(F)cc6c5CN(C5CCC(=O)NC5=O)C6=O)C4)c(Cl)cc23)CC1 (stereo not drawn) [Compound 87, 3-(4-(1-(7-(2-(6-Chloro-8-fluoro-4-(4-propionylpiperazin-1-yl)quinazolin-7-yl)-3-fluorophenoxy)heptyl)piperidin-3-yl)-6-fluoro-1-oxoisoindolin-2-yl)piperidine-2,6-dione] | B′ | < 10% | B′
C=CC(=O)N1CCN(c2ncnc3c(F)c(-c4cc(OCCCCCCCN5CCC(c6cc(F)cc7c6CN(C6CCC(=O)NC6=O)C7=O)CC5)ccc4F)c(Cl)cc23)CC1 (stereo not drawn) [Compound 90, 3-(4-(1-(7-(3-(4-(4-Acryloylpiperazin-1-yl)-6-chloro-8-fluoroquinazolin-7-yl)-4-fluorophenoxy)heptyl)piperidin-4-yl)-6-fluoro-1-oxoisoindolin-2-yl)piperidine-2,6-dione] | B′ | < 10% | B′
CCC(=O)N1CCN(c2ncnc3c(F)c(-c4cc(OCCCCCCCN5CCC(c6cc(F)cc7c6CN(C6CCC(=O)NC6=O)C7=O)CC5)ccc4F)c(Cl)cc23)CC1 (stereo not drawn) [Compound 91, 3-(4-(1-(7-(3-(6-Chloro-8-fluoro-4-(4-propionylpiperazin-1-yl)quinazolin-7-yl)-4-fluorophenoxy)heptyl)piperidin-4-yl)-6-fluoro-1-oxoisoindolin-2-yl)piperidine-2,6-dione] | B′ | < 10% | B′
CCC(=O)N1CCN(c2ncnc3c(F)c(-c4c(F)cccc4OCCc4cn(CCN5CCC(c6cc(F)cc7c6CN(C6CCC(=O)NC6=O)C7=O)CC5)nn4)c(Cl)cc23)CC1 (stereo not drawn) [Compound 92, 3-(4-(1-(2-(4-(2-(2-(6-Chloro-8-fluoro-4-(4-propionylpiperazin-1-yl)quinazolin-7-yl)-3-fluorophenoxy)ethyl)-1H-1,2,3-triazol-1-yl)ethyl)piperidin-4-yl)-6-fluoro-1-oxoisoindolin-2-yl)piperidine-2,6-dione] | C′ | ≥ 50% | D′
CCC(=O)N1CCN(c2ncnc3c(F)c(-c4c(F)cccc4OCCCCCCCN4CCC(c5cc6c(cc5F)C(=O)N(C5CCC(=O)NC5=O)C6)CC4)c(Cl)cc23)CC1 (stereo not drawn) [Compound 93, 3-(5-(1-(7-(2-(6-Chloro-8-fluoro-4-(4-propionylpiperazin-1-yl)quinazolin-7-yl)-3-fluorophenoxy)heptyl)piperidin-4-yl)-6-fluoro-1-oxoisoindolin-2-yl)piperidine-2,6-dione] | B′ | < 10% | B′
CCC(=O)Oc1cccc(F)c1-c1c(Cl)cc2c3c(cnc2c1F)N(CCCCCCCN1CCC(c2cc(F)cc4c2CN(C2CCC(=O)NC2=O)C4=O)CC1)C(=O)[C@H]1CN(C(=O)CC)[C@H](C)CN31 (stereo partly drawn) [Compound 95, 2-((2R,4aR)-11-Chloro-6-(7-(4-(2-(2,6-dioxopiperidin-3-yl)-6-fluoro-1-oxoisoindolin-4-yl)piperidin-1-yl)heptyl)-9-fluoro-2-methyl-5-oxo-3-propionyl-2,3,4,4a,5,6-hexahydro-1H-pyrazino[1′,2′:4,5]pyrazino[2,3-c]quinolin-10-yl)-3-fluorophenyl propionate] | B′ | < 10% | B′
CC(C)/C=C(\Cl)C(=O)N1CCN(c2ncnc3c(F)c(-c4c(F)cccc4OCCCCCCCN4CCC(c5cc(F)cc6c5CN(C5CCC(=O)NC5=O)C6=O)CC4)c(Cl)cc23)CC1 (stereo not drawn) [Compound 97, (Z)-3-(4-(1-(7-(2-(6-Chloro-4-(4-(2-chloro-4-methylpent-2-enoyl)piperazin-1-yl)-8-fluoroquinazolin-7-yl)-3-fluorophenoxy)heptyl)piperidin-4-yl)-6-fluoro-1-oxoisoindolin-2-yl)piperidine-2,6-dione] | B′ | < 10% | B′

Continued, in another order:

Inhibition of H358 cells, IC50 (class) [2] | SMILES | viability at 10 µM [1] | Inhibition of H23 cells, IC50 (class) [3]
A′ | C=CC(=O)N1CCN(c2nc(OC[C@@H]3CCCN3C)nc3c(F)c(-c4c(F)cccc4OCCCCCCCN4CCC(c5cc(F)cc6c5CN(C5CCC(=O)NC5=O)C6=O)CC4)c(Cl)cc23)CC1 (stereo partly drawn) [Compound 88, 3-(4-(1-(7-(2-(4-(4-Acryloylpiperazin-1-yl)-6-chloro-8-fluoro-2-(((S)-1-methylpyrrolidin-2-yl)methoxy)quinazolin-7-yl)-3-fluorophenoxy)heptyl)piperidin-4-yl)-6-fluoro-1-oxoisoindolin-2-yl)piperidine-2,6-dione] | < 10% | B′
B′ | CCC(=O)N1CCN(c2nc(OC[C@@H]3CCCN3C)nc3c(F)c(-c4c(F)cccc4OCCCCCCCN4CCC(c5cc(F)cc6c5CN(C5CCC(=O)NC5=O)C6=O)CC4)c(Cl)cc23)CC1 (stereo partly drawn) [Compound 89, 3-(4-(1-(7-(2-(6-Chloro-8-fluoro-2-(((S)-1-methylpyrrolidin-2-yl)methoxy)-4-(4-propionylpiperazin-1-yl)quinazolin-7-yl)-3-fluorophenoxy)heptyl)piperidin-4-yl)-6-fluoro-1-oxoisoindolin-2-yl)piperidine-2,6-dione] | < 10% | B′
B′ | C=CC(=O)N1CCN(c2ncnc3c(F)c(-c4c(F)cccc4OCCCCCCCN4CCC(c5cc6c(cc5F)C(=O)N(C5CCC(=O)NC5=O)C6)CC4)c(Cl)cc23)CC1 (stereo not drawn) [Compound 94, 3-(5-(1-(7-(2-(4-(4-Acryloylpiperazin-1-yl)-6-chloro-8-fluoroquinazolin-7-yl)-3-fluorophenoxy)heptyl)piperidin-4-yl)-6-fluoro-1-oxoisoindolin-2-yl)piperidine-2,6-dione] | < 10% | B′
B′ | C/C=C(\Cl)C(=O)N1CCN(c2ncnc3c(F)c(-c4c(F)cccc4OCCCCCCCN4CCC(c5cc(F)cc6c5CN(C5CCC(=O)NC5=O)C6=O)CC4)c(Cl)cc23)CC1 (stereo not drawn) [Compound 96, (Z)-3-(4-(1-(7-(2-(6-Chloro-4-(4-(2-chlorobut-2-enoyl)piperazin-1-yl)-8-fluoroquinazolin-7-yl)-3-fluorophenoxy)heptyl)piperidin-4-yl)-6-fluoro-1-oxoisoindolin-2-yl)piperidine-2,6-dione] | < 10% | B′
B′ | CC/C=C(\Cl)C(=O)N1CCN(c2ncnc3c(F)c(-c4c(F)cccc4OCCCCCCCN4CCC(c5cc(F)cc6c5CN(C5CCC(=O)NC5=O)C6=O)CC4)c(Cl)cc23)CC1 (stereo not drawn) [Compound 98, (Z)-3-(4-(1-(7-(2-(6-Chloro-4-(4-(2-chloropent-2-enoyl)piperazin-1-yl)-8-fluoroquinazolin-7-yl)-3-fluorophenoxy)heptyl)piperidin-4-yl)-6-fluoro-1-oxoisoindolin-2-yl)piperidine-2,6-dione] | 25 to 50% | B′
B′ | CC(=O)N1CCN(c2ncnc3c(F)c(-c4c(F)cccc4OCCCCCCCN4CCC(c5cc(F)cc6c5CN(C5CCC(=O)NC5=O)C6=O)CC4)c(Cl)cc23)CC1 (stereo not drawn) [Compound 99, 3-(4-(1-(7-(2-(4-(4-Acetylpiperazin-1-yl)-6-chloro-8-fluoroquinazolin-7-yl)-3-fluorophenoxy)heptyl)piperidin-4-yl)-6-fluoro-1-oxoisoindolin-2-yl)piperidine-2,6-dione] | < 10% | B′
